test: Test 4: metabolic stability test in human hepatic microsome; assay type: in vitro ADME; conditions: 0.1 mg/mL microsome, 0.1 μmol/L compound, NADPH, 37° C., 30 minutes
Description: Test 4: Metabolic Stability Test in Human Hepatic Microsome
The stability of the present compound in human hepatic microsome metabolism was evaluated as mentioned below. Human hepatic microsome was obtained from Xenontech. Human hepatic microsome, NADPH, and each test compound were mixed in 25 mmol/L phosphate buffer solution (pH 7.4) to reach the following concentrations as shown below, and the mixture was incubated at 37° C. for 30 minutes. • Human hepatic microsome: 0.1 mg/mL • NAPDH: 3.2 mmol/L • Test compound: 0.1 μmol/L
The residual ratio of the test compound in each sample after 30 minutes was measured by LC-MS, and the metabolic stability in human hepatic microsome was calculated from the following formula. Metabolic stability in human hepatic microsome (mL/min/mg protein)=−LN(residual ratio)/30/0.1

In the case of `O=C1c2ncccc2CCN1CCN1CCN(c2noc3ccccc23)CC1` [Example 1, 7-{2-[4-(1,2-Benzoisoxazol-3-yl)piperazin-1-yl]ethyl}-6,7-dihydro-1,7-naphthyridin-8(5H)-one], the “Metabolic stability in human hepatic microsome” value (“Metabolic stability” below) is reported as under 0.01 mL/min/mg protein.
With `O=C1c2ncccc2CCN1CCN1CCC(c2noc3ccc(F)cc23)CC1` [Example 5] the “Metabolic stability” value was under 0.01 mL/min/mg protein.
For `COc1cc2c(cn1)C(=O)N(CCN1CCC(c3noc4ccccc34)CC1)CC2` [Example 14], the “Metabolic stability” value was under 0.01 mL/min/mg protein.
With `Cn1cnc2c1CCN(CCN1CCC(c3noc4ccccc34)CC1)C2=O` [Example 16] the “Metabolic stability” value was under 0.01 mL/min/mg protein.
For `Cn1cc2c(n1)CCN(CCN1CCC(c3noc4ccccc34)CC1)C2=O` [Example 17], the “Metabolic stability” value was under 0.01 mL/min/mg protein.
In the case of `O=C1c2ncccc2CCN1CCN1CCC(c2nsc3ccccc23)CC1` [Example 26], the “Metabolic stability” value is reported as under 0.01 mL/min/mg protein.
In the case of `Cc1noc2c1C(=O)N(CCN1CCN(c3noc4ccccc34)CC1)CC2` [Example 32, 5-{2-[4-(1,2-Benzoisoxazol-3-yl)piperazin-1-yl]ethyl}-3-methyl-6,7-dihydro[1,2]oxazolo[4,5-c]pyridin-4(5H)-one], the “Metabolic stability” value is reported as under 0.01 mL/min/mg protein.
For `Cn1cc2c(n1)CCCN(CCN1CCC(c3noc4ccccc34)CC1)C2=O` [Example 41], the “Metabolic stability” value was under 0.01 mL/min/mg protein.
For `Cn1cc2c(n1)C(=O)N(CCN1CCC(c3noc4ccccc34)CC1)CCC2` [Example 48], the “Metabolic stability” value was under 0.01 mL/min/mg protein.
With `Cn1ncc2c1CCN(CCN1CCN(c3nsc4ccccc34)CC1)C2=O` [Example 63] the “Metabolic stability” value was under 0.01 mL/min/mg protein.
With `Cn1cc2c(n1)CCN(CCN1CCN(c3noc4ccccc34)CC1)C2=O` [Example 81] the “Metabolic stability” value was under 0.01 mL/min/mg protein.
With `Cc1ncc2c(n1)CCN(CCN1CCC(c3noc4ccccc34)CC1)C2=O` [Example 88, 6-{2-[4-(1,2-Benzoisoxazol-3-yl)piperidin-1-yl]ethyl}-2-methyl-7,8-dihydropyrido[4,3-d]pyrimidin-5(6H)-one] the “Metabolic stability” value was under 0.01 mL/min/mg protein.
With `Cc1nn(C)c2c1C(=O)N(CCN1CCC(c3noc4ccccc34)CC1)CCC2` [Example 91] the “Metabolic stability” value was under 0.05 mL/min/mg protein.
For `O=C1c2cn[nH]c2CCCN1CCN1CCC(c2noc3ccccc23)CC1` [Example 97, 5-{2-[4-(1,2-Benzoisoxazol-3-yl)piperidin-1-yl]ethyl}-5,6,7,8-tetrahydropyrazolo[4,3-c]azepin-4(1H)-one], the “Metabolic stability” value was under 0.01 mL/min/mg protein.
With `Cc1n[nH]c2c1C(=O)N(CCN1CCC(c3noc4ccccc34)CC1)CC2` [Example 99, 5-{2-[4-(1,2-Benzoisoxazol-3-yl)piperidin-1-yl]ethyl}-3-methyl-1,5,6,7-tetrahydro-4H-pyrazolo[4,3-c]pyridin-4-one] the “Metabolic stability” value was under 0.01 mL/min/mg protein.
With `Cn1ccc2c1CCCN(CCN1CCC(c3noc4ccccc34)CC1)C2=O` [Example 103, 5-{2-[4-(1,2-Benzoisoxazol-3-yl)piperidin-1-yl]ethyl}-1-methyl-5,6,7,8-tetrahydropyrrolo[3,2-c]azepin-4(1H)-one] the “Metabolic stability” value was under 0.01 mL/min/mg protein.

In order of falling “Metabolic stability” value:
1. COc1cc2c(cn1)C(=O)N(CCN1CCN(c3nsc4ccccc34)CC1)CC2 [Example 2, 2-{2-[4-(1,2-Benzoisothiazol-3-yl)piperazin-1-yl]ethyl}-6-methoxy-3,4-dihydro-2,7-naphthyridin-1(2H)-one]  0.22 mL/min/mg protein
2. [2H]C([2H])([2H])Oc1cc2c(cn1)C(=O)N(CCN1CCN(c3nsc4ccccc34)CC1)CC2([2H])[2H] [Example 107, 2-{2-[4-(1,2-Benzoisothiazol-3-yl)piperazin-1-yl]ethyl}-6-[(^2H3)methyloxy](4,4-^2H2)-3,4-dihydro-2,7-naphthyridin-1(2H)-one]  0.210 mL/min/mg protein
3. O=C1c2cccnc2CCN1CCN1CCN(c2nsc3ccccc23)CC1 [Example 9]  0.100 mL/min/mg protein
4. Cn1cc2c(n1)CCCN(CCN1CCN(c3nsc4ccccc34)CC1)C2=O [Example 42]  0.100 mL/min/mg protein
5. O=C1c2cncnc2CCN1CCN1CCN(c2nsc3ccccc23)CC1 [Example 58]  0.092 mL/min/mg protein
6. Cc1noc2c1C(=O)N(CCN1CCC(c3noc4ccccc34)CC1)CC2 [Example 33]  0.074 mL/min/mg protein
7. Cc1nc2c(o1)CCN(CCN1CCN(c3nsc4ccccc34)CC1)C2=O [Example 51]  0.074 mL/min/mg protein
8. CC1CN(CCN2CCC(c3noc4ccccc34)CC2)C(=O)c2ccn(C)c21 (stereo not drawn) [Example 82]  0.072 mL/min/mg protein
9. Cc1ncc2c(n1)CCN(CCN1CCN(c3nsc4ccccc34)CC1)C2=O [Example 90]  0.070 mL/min/mg protein
10. Cn1ncc2c1CCCC(CCN1CCC(c3noc4ccccc34)CC1)C2=O (stereo not drawn) [Example 30]  0.065 mL/min/mg protein
11. Cc1nn(C)c2c1C(=O)N(CCN1CCN(c3noc4ccccc34)CC1)CCC2 [Example 92]  0.065 mL/min/mg protein
12. O=c1c2ncccc2ccn1CCN1CCN(c2nsc3ccccc23)CC1 [Example 8]  0.064 mL/min/mg protein
13. CCn1ncc2c1CCN(CCN1CCN(c3nsc4ccccc34)CC1)C2=O [Example 64]  0.064 mL/min/mg protein
14. Cn1ncc2c1CCC(CCN1CCN(c3nsc4ccccc34)CC1)C2=O (stereo not drawn) [Example 29]  0.063 mL/min/mg protein
15. Cn1cc2c(n1)C(=O)N(CCN1CCN(c3nsc4ccccc34)CC1)CCC2 [Example 49]  0.063 mL/min/mg protein
16. Cc1cc2c(C3CCN(CCN4CCc5cccnc5C4=O)CC3)noc2cc1F [Example 6]  0.061 mL/min/mg protein
17. Cn1ccc2c1CCN(CCN1CCN(c3nsc4ccccc34)CC1)C2=O [Example 61]  0.056 mL/min/mg protein
18. O=C1c2oc(C3CC3)nc2CCN1CCN1CCC(c2noc3ccccc23)CC1 [Example 68]  0.056 mL/min/mg protein
19. CC1CN(CCN2CCC(c3noc4ccccc34)CC2)C(=O)c2ncccc21 (stereo not drawn) [Example 15]  0.055 mL/min/mg protein
20. Cc1ccc2onc(C3CCN(CCN4CCc5cccnc5C4=O)CC3)c2c1 [Example 89]  0.050 mL/min/mg protein
21. O=C1c2ncccc2CCN1CCN1CCN(c2nsc3cc(F)ccc23)CC1 [Example 27]  0.048 mL/min/mg protein
22. Cc1nccc2c1C(=O)N(CCN1CCN(c3noc4ccccc34)CC1)CC2 [Example 85]  0.046 mL/min/mg protein
23. Cc1nc2c(o1)CCCN(CCN1CCN(c3nsc4ccccc34)CC1)C2=O [Example 52]  0.043 mL/min/mg protein
24. O=C1c2ncccc2CCN1CCN1CCN(c2nsc3ccccc23)CC1 [Example 7]  0.041 mL/min/mg protein
25. Cn1ncc2c1CCCN(CCN1CCN(c3nsc4ccccc34)CC1)C2=O [Example 44]  0.04 mL/min/mg protein
26. Cn1cc2c(n1)C(=O)N(CCN1CCN(c3nsc4ccccc34)CC1)CC2 [Example 50]  0.038 mL/min/mg protein
27. Cc1nc2c(o1)C(=O)N(CCN1CCN(c3nsc4ccccc34)CC1)CC2 [Example 45]  0.032 mL/min/mg protein
28. O=c1c2ncccc2ccn1CCN1CCC(c2noc3cc(F)ccc23)CC1 [Example 12]  0.02 mL/min/mg protein
29. O=C1c2ncccc2CCC1CCN1CCC(c2noc3ccccc23)CC1 (stereo not drawn) [Example 24]  0.018 mL/min/mg protein
30. Cc1nc2c(o1)C(=O)N(CCN1CCN(c3nsc4ccccc34)CC1)CCC2 [Example 46]  0.018 mL/min/mg protein
31. O=C1c2cn(C3CC3)nc2CCN1CCN1CCC(c2noc3ccccc23)CC1 [Example 76]  0.018 mL/min/mg protein
32. Cn1ncc2c1CCC(CCN1CCC(c3noc4ccccc34)CC1)C2=O (stereo not drawn) [Example 28]  0.017 mL/min/mg protein
33. Cc1c2c(nn1C)CCN(CCN1CCC(c3noc4ccccc34)CC1)C2=O [Example 37, 5-{2-[4-(1,2-Benzoisoxazol-3-yl)piperidin-1-yl]ethyl}-2,3-dimethyl-2,5,6,7-tetrahydro-4H-pyrazolo[4,3-c]pyridin-4-one]  0.017 mL/min/mg protein
34. Cc1nc2c(o1)CCN(CCN1CCC(c3noc4ccccc34)CC1)C2=O [Example 39]  0.016 mL/min/mg protein
35. O=C1c2cncnc2CCN1CCN1CCC(c2noc3ccccc23)CC1 [Example 57]  0.013 mL/min/mg protein
36. O=C1c2[nH]ncc2CCN1CCN1CCC(c2noc3ccccc23)CC1 [Example 98, 6-{2-[4-(1,2-Benzoisoxazol-3-yl)piperidin-1-yl]ethyl}-1,4,5,6-tetrahydro-7H-pyrazolo[3,4-c]pyridin-7-one]  0.013 mL/min/mg protein
37. Cn1ncc2c1CCCN(CCN1CCN(c3noc4ccccc34)CC1)C2=O [Example 80]  0.012 mL/min/mg protein
38. O=C1c2ncccc2CCN1CCN1CCC(c2noc3cc(F)ccc23)CC1 [Example 4]  0.011 mL/min/mg protein
